Results taken from patent publication US20020183357A1, “Use of alpha- 1- alpha adrenoceptor agonists with alpha-1-Beta antagonism for the treatment of stress urinary incontinence” (priority 2000, published 2002).
Where two headings read alike, the source gives them in different places.

Tests used:
[1] = biological target: T1, α1D adrenoceptor subtype (rat aorta) (Rattus norvegicus, UniProt P23944); conditions: for type of antagonism at α1D: based on slope and regression (r) of Schild plot; for α1D r (regression of Schild plot) / α1D slope (Schild plot): rat aorta
T1 sequence (P23944 1-561): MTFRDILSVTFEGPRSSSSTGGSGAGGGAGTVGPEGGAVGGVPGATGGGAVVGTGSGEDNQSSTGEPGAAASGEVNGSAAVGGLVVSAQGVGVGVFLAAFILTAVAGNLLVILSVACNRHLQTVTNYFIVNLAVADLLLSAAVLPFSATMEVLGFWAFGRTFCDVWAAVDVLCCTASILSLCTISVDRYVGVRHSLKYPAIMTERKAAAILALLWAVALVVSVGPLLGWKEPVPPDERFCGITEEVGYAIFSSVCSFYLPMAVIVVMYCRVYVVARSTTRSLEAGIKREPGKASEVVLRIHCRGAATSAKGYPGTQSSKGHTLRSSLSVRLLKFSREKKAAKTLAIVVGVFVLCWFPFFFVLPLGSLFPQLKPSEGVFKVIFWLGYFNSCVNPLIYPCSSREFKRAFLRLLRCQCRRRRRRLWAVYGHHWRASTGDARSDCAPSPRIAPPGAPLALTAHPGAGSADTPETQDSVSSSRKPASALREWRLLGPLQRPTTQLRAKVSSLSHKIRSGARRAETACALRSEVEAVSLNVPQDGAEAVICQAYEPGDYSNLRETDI
Source text: (§4) The interaction of an antagonist with a receptor can be characterized by an affinity constant, pA2. The affinity unit, pA2, can be defined as negative logarithm to base 10 of the molar concentration of antagonist drug that will reduce the effect of the reference agonist by 50%. […] The fractional increase in agonist concentration required to overcome the effects of the antagonist should be independent of the agonist concentration. Secondly, the affinity of the antagonist should be independent of concentration, therefore the Schild plot should have a slope of unity. Thirdly, the antagonist affinity should be independent of the agonist used.
(§5) The urethra was removed with the urinary bladder and immediately placed into Krebs Ringer bicarbonate solution with the following mM concentrations: 120 NaCl, 18.0 NaHCO3, 11.0 dextrose, 4.7 KCl, 2.5 CaCl2, 1.5 MgSO4, 1.2 KH2PO4 and equilibrated with 5% CO2:95% O2. The pH was adjusted to 7.2 at 25° C. by titrating with a saturated solution of NaHCO3. The pH increased to 7.4 at 37° C. Propranolol (0.004 mM) was included in all of the assays to block β-adrenoceptors. […] One end was fixed to a stationary glass rod and the other to a Grass FT03 transducer at a basal preload of 1.0 g of tension. Data was recorded on a Grass model-7 polygraph. Tissues were rinsed every 10 minutes for a total of 45-60 minutes. The urethra was primed once with 80 mM KCl, rinsed to basal tension and again with 10 μM phenylephrine (PE). After an additional 60 minute equilibration period a reference concentration response curve was generated for each tissue using PE as the reference agonist. A cumulative concentration protocol was employed. Following a 75 minute washout period a second response curve was then generated in the same fashion using the test agent. The amount of agent necessary to cause a 50% response (ED50) was calculated using “AGANTG” (Zielinski, P. J., Buckner, S. A. (1998). AGANTG: A Microsoft Excel 5.0-visual basic routine for the analysis of dose-response data. Analyst. 123, 1661-1668), a four parameter curve fitting program similar to “Allfit” (DeLean, A., Munson, P. J., Rodbard, D. (1980). Simultaneous analysis of families of sigmoidal curves: application to bioassay, radioligand assay, and physiological dose-response curves. Am. J. Physiol. 235, E97-102). Agonist potencies were indexed to PE and expressed as the negative logarithm (pD2). Each tissue was used for only one test agonist. For antagonists, the test agent was allowed a 30 minute exposure time before a second PE curve was started. The potency, expressed as a pA2, was calculated according to the method of Arunlakshana, O., Schild, H. O. (1959), Some quantitative uses of drug antagonists. […] The individual tissues were exposed to only one concentration of the test antagonist. The regression lines of the Schild plots were analyzed using least squares regression (Snedecor, G. W., Cochran, W. G., (1980). In Statistical methods, 7th edition, Iowa State University Press, Ames, Iowa).
(§6) Male Sprague Dawley rats (350-450 g) were sedated with CO2 and decapitated. The entire thoracic aorta was removed and immediately placed into Krebs Ringer bicarbonate solution as described above. The aorta was cleaned of extraneous tissue and the endothelium removed by passing a 100 mm length of PE-160 tubing through the lumen. The aorta was cut into 3-4 mm rings and mounted in 10 ml isolated tissue baths at 37° C.

[2] = biological target: T1, α1D adrenoceptor subtype (rat aorta); experiment: Rat aorta tissue bath, agonism; conditions: for α1D efficacy: percent of phenylephrine (100%) contraction
Source text: (§1) Quantitative analysis of agonist and antagonist action is the basis of receptor classification and drug design. […] The interaction of an agonist with a receptor may be characterized by two quantities, affinity and efficacy. These quantities can be estimated by generating two concentration response curves and fitting the data to a four parameter curve smoothing routine. The first curve is a reference standard followed by a thorough rinsing and a second curve generated using the test agent. […] Agonist potency (pD2) is expressed as the negative log10 of the EC50. The efficacy is determined by comparing the maximum value of the test agent to the maximum value of the reference agent and expressed as a % of maximum response.
(§2) A cumulative concentration protocol was employed. […] Br. J. Pharmacol. 14, 48-58.

[3] = biological target: T1, α1D adrenoceptor subtype (rat aorta)
Source text: as §4, §5, §6

[4] = biological target: T2, α1B adrenoceptor subtype (rat spleen) (Rattus norvegicus, UniProt P15823); conditions: for type of antagonism at α1B: based on slope and regression (r) of Schild plot; for α1B r (regression of Schild plot) / α1B slope (Schild plot): rat spleen
T2 sequence (P15823 1-515): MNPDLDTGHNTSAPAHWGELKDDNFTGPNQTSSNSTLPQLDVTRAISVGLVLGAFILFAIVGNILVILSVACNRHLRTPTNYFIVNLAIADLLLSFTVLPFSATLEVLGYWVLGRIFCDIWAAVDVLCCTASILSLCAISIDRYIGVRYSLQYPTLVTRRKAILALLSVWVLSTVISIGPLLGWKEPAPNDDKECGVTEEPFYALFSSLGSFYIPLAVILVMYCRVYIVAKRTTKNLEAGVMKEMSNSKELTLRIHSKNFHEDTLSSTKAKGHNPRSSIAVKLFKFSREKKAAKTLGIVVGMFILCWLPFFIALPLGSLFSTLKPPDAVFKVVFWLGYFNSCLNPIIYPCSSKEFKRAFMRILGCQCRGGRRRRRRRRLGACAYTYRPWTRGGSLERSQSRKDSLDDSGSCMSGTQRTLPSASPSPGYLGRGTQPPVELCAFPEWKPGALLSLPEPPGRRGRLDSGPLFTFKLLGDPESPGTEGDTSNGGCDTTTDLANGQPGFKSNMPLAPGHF
Source text: as §2
(§3) The spleen was split longitudinally into two preparations per rat.

[5] = biological target: T2, α1B adrenoceptor subtype (rat spleen); experiment: Rat spleen tissue bath, agonism; parameters: The spleen was split longitudinally into two preparations per rat; from tissue; host or cells: rat spleen
Source text: as §1, §2, §3

[6] = biological target: T3, α1A adrenoceptor subtype (rabbit urethra) (Oryctolagus cuniculus, UniProt O02824); experiment: Rabbit urethra tissue bath, agonism; conditions: for α1A efficacy: percent of phenylephrine (100%) contraction
T3 sequence (O02824 1-466): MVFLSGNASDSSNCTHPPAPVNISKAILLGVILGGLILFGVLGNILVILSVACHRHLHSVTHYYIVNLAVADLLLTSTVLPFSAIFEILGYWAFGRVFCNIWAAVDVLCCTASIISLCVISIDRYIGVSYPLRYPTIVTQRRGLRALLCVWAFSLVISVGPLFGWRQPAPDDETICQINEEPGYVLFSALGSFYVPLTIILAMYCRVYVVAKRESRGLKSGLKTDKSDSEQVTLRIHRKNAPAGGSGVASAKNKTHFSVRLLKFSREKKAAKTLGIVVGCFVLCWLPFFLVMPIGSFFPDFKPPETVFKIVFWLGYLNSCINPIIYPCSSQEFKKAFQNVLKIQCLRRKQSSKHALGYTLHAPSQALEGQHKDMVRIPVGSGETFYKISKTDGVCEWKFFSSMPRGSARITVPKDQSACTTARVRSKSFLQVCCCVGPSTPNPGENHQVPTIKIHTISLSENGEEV
Source text: as §1, §2
The efficacy of the compounds are compared as a percent of phenylephrine (100%) contraction.

[7] = for IUP ED5 mmHg: dose producing 5 mmHg increase in IUP; for Selectivity ratio MAP ED20/IUP ED5: calculated for each dog and then averaged
Source text: Intraurethral Pressure in Dogs (IUP-MAP test)
Female Beagle dogs (Marshall Farms, North Rose, N.Y.) greater that 2 years of age and weighing between 12 and 15 kg were used in these studies. At least 2 weeks prior to any agonist dosing, dogs were instrumented for the chronic measurement of arterial blood pressure by implanting a telemetry transducer/transmitter (TA11PA-C40, Data Sciences International, St. Paul, Minn.) into a carotid artery.
On the test day, dogs fasted since the previous afternoon were pre-anesthetized with thiopental sodium 15 mg/kg i.v. (Pentothal™, Abbott) and intubated. Anesthesia was maintained by allowing the dog to spontaneously breathe a mixture of isoflurane (2.5 to 3 volume %) and oxygen delivered by a Narkomed Standard anesthesia system (North American Drager, Telford, Pa.). An Abbocath-T™ i.v. catheter (18-G, Abbott Laboratories, Abbott Park, Ill.) was inserted into the cephalic vein for the administration of agonists. A telemetry receiver (RA1310, DataSciences) was placed under the head of each dog and was interfaced to a computerized data acquisition system (Modular Instruments Inc.(MI2), Malvern, Pa.) which allowed for the continuous calibrated recording of arterial blood pressure which was electronically filtered to determine its mean value (MAP).
Briefly, a 7 Fr catheter balloon catheter (41224-01, Abbott) was inserted into the urethral orifice and advanced approximately 15 cm until the tip was well inside the bladder. The balloon was then inflated with 1 ml of room air and the catheter slowly withdrawn until resistance (corresponding to the bladder neck) was evident. The balloon was then deflated and the catheter withdrawn an additional 2 cm. The balloon was then reinflated and its catheter port connected to a Gould Statham P23Dd pressure transducer interfaced to a computerized data acquisition system (Modular Instruments, Inc., Malvern, Pa.) for the measurement of intraurethral pressure (IUP). The MAP and IUP pressor responses to increasing iv doses of test agonists were obtained simultaneously. The pressor effects of each dose were allowed to return to baseline before the next dose was given.
The dose required to elicit significant and clinically meaningful changes in IUP (5 mm Hg) relative to the dose required to elicit a physiologically significant increase in blood pressure (20 mm Hg) is calculated.
IUP and MAP pressor effects of each agonist dose were expressed as the maximum net change in each pressure over pre-dose baseline levels. Subsequently, the effective doses required to produce a 5 mmHg increase in IUP (IUP ED5mmHg) and a 20 mmHg increase in MAP (MAP ED20mmHg) were estimated from the dose response data from each dog. Relative urethral versus vascular selectivity of each agonist in each dog was estimated using a ratio of these respective potency indices (MAP ED20mmHg/IUP ED5mmHg).
Data are expressed as means (±S.E.M) and all doses are in nmol/kg, i.v.

[8] = biological target: T4, α1d adrenoceptor (rat receptor expressed in mouse fibroblasts) (Rattus norvegicus, UniProt P23944); experiment: Radioligand binding, α1d (rat receptor expressed in mouse fibroblasts), [3H]-prazosin
T4 construct: expressed in transfected cells; host or cells: mouse fibroblasts
T4 sequence (P23944 1-561): T1 sequence (P23944 1-561)

[9] = biological target: T5, α1b adrenoceptor (hamster receptor expressed in mouse fibroblasts) (Mesocricetus auratus, UniProt P18841); experiment: Radioligand binding, α1b (hamster receptor expressed in mouse fibroblasts), [3H]-prazosin
T5 construct: expressed in transfected cells; host or cells: mouse fibroblasts
T5 sequence (P18841 1-515): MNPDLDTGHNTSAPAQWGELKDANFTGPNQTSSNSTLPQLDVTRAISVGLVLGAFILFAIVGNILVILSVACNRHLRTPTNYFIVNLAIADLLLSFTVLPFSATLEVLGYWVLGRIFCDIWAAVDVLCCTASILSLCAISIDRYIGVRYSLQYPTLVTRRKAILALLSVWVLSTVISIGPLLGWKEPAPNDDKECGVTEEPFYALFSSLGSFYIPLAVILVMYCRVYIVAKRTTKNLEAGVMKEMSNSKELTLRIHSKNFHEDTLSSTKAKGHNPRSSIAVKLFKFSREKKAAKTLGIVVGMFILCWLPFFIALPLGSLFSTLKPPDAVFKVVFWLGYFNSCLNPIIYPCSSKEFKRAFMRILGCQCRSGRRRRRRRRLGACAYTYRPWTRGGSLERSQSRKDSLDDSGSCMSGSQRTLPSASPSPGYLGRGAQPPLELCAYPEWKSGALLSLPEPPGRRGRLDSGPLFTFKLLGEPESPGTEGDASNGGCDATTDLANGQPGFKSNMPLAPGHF

[10] = biological target: T6, α1A adrenoceptor (rat submaxillary gland) (Rattus norvegicus, UniProt P43140); experiment: Radioligand binding, α1A (rat submaxillary gland), [3H]-prazosin
T6 construct: α1A (rat submaxillary gland); from tissue; host or cells: rat submaxillary gland
T6 sequence (P43140 1-466): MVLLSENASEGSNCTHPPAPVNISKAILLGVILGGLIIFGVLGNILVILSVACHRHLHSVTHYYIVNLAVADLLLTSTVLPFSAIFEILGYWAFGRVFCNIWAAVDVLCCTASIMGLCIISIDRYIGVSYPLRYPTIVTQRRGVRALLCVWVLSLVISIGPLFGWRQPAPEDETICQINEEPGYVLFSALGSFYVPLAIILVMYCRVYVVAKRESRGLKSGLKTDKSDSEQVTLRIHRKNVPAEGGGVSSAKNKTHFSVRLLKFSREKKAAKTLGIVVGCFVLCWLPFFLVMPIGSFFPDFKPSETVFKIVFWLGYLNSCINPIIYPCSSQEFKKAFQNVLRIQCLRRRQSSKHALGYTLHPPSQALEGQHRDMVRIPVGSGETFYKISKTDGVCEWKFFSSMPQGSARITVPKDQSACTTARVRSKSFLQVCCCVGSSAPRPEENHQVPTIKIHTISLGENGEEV

[11] = i.v., anesthetized female Beagle dogs, mean ± S.E.M.
[12] = i.v., anesthetized female Beagle dogs, dose producing 20 mmHg increase in MAP, mean ± S.E.M.

Structure (SMILES)	type of antagonism at α1D [1]	α1D r (regression of Schild plot) [1]	α1D slope (Schild plot) [1]	α1D pD2 ([2]; agonist potency)	Kb [3] [µM]	Kb [4] [µM]	type of antagonism at α1B [4]	α1B r (regression of Schild plot) [4]	α1B slope (Schild plot) [4]	α1B pD2 ([5]; agonist potency)	α1A efficacy [6] [%]	α1D efficacy [2] [%]	IUP ED5 mmHg [7, 11] [nmol/kg]	Selectivity ratio MAP ED20/IUP ED5 [7]	MAP ED20 mmHg [7, 12] [nmol/kg]	other results
CCS(=O)(=O)Nc1cccc(Cc2c[nH]cn2)c1 [Compound A-286666]	competitive antagonist	0.9	0.93	inactive	0.316	1.58	competitive antagonist	0.9	0.81	inactive	80	–	–	–	–	–
CS(=O)(=O)Nc1c(O)ccc2c1CCCC2C1=NCCN1 (centres unmarked) [Compound A-61603, reference compound]	–	–	–	–	–	–	–	–	–	–	88	100	0.16 ± 0.02	–	–	MAP ED20 mmHg ([7]; female, Beagle, dog, in vivo, iv): 0.27 ± 0.05 nmol/kg
CCS(=O)(=O)Nc1cccc(Cc2c[nH]cn2)c1C [Compound A-286569]	non-competitive antagonist	0.5	1.1	inactive	6.31	15.8	non-competitive antagonist	0.6	1.3	inactive	69	–	41.9 ± 6.2	5.6	201.6 ± 67	–
C[C@@H](N)[C@H](O)c1ccccc1 [PPA, phenylpropanolamine]	–	–	–	–	–	–	–	–	–	–	68	91	1092 ± 384	0.4	331 ± 80	Ki [8]: > 10 µM; EC50 ([2]; agonist potency, read-out: α1D pD2 (converted)): 63.1 µM; Ki [9]: > 10 µM; Ki [10]: > 10 µM; EC50 ([5]; agonist potency, read-out: α1B pD2 (converted)): 251 µM; α1B efficacy ([5]; percent of phenylephrine (100%) contraction): 34%; EC50 ([6]; agonist potency, negative log of EC50, read-out: α1A pD2 (converted)): 200 µM
